Source: patent US8916577B2, “Tricyclic derivatives, process for their preparation and their use as kinase inhibitors” (Nerviano Medical Sciences S.R.L., priority 2011, dated 2014)
Where a name gives a salt, the structure may show the parent alone.

Biological target: MPS1 (Homo sapiens (Human), UniProt P33981)
Assay: Biochemical assay for inhibitors of MPS1 kinase activity (33P-ATP trans-phosphorylation, Dowex)
Conditions: 5 nM MPS1, 15 microM ATP, P38-β-tide 200 microM
Excerpt: Cloning, Expression and Purification of Recombinant MPS1 Full Length Protein.
MPS1 full length (corresponding to residues 2-857 of the full length sequence, see Swiss-Prot accession number P33981) was PCR amplified from the full-length human MPS1 gene present in house as clone pGEX4t_MPS1.
Baculoviruses were generated by cotransfecting Sf9 insect cells with the expression vector and the viral DNA using the BaculoGold® transfection kit (Pharmingen). Viral supernatant was recovered after 5 days and subjected to 3 rounds of amplification to increase viral titer. Recombinant protein was produced by infecting High5 insect cells. After 72 hours of infection at 21° C., cells were recovered, pelletted and freezed at −80° C. For purification of recombinant protein, pellet was thawed, resuspended in lysis buffer (PBS, NaCl 150 mM, Glycerol 10%, CHAPS 0.1%, DTT 20 mM, protease and phosphatase inhibitors) and lysed by Gaulin. Lysate was cleared by centrifugation and loaded on a GST affinity column. After extensive wash, recombinant protein was cleaved by a specific protease and eluted by incubation.
To get a fully activated enzyme, the protein was then subjected to auto-phosphorylation in presence of ATP 1 mM at 25° C. for 2 hours in kinase buffer (Hepes pH7.5 50 mM, MgCl2 2.5 mM, MnCl2 1 mM, DTT 1 mM, phosphatase inhibitors); ATP was then removed whit a desalting column.
Biochemical Assay for Inhibitors of MPS1 Kinase Activity
The inhibitory activity of putative kinase inhibitors and the potency of selected compounds were determined using a trans-phosphorylation assay.
Specific peptide or protein substrates are trans-phosphorylated by their specific ser-thr or tyr kinase in the presence of ATP traced with ^33P-γ-ATP, and in the presence of their own optimal buffer and cofactors.
At the end of the phosphorylation reaction, more than 98% unlabeled ATP and radioactive ATP is captured by an excess of the ion exchange dowex resin; the resin then settles down to the bottom of the reaction plate by gravity.
Supernatant is subsequently withdrawn and transferred into a counting plate, then evaluated by P-counting.
The buffer for MPS1 assay was composed of HEPES 50 mM, at pH 7.5, with 2.5 mM MgCl2, 1 mM MnCl2, 1 mM DTT, 3 microM Na3VO4, 2 mM P-glycerophosphate and 0.2 mg/mL BSA.
The assay was run with a final concentration MPS1 of 5 nM, in the presence of 15 microM ATP and 1.5 nM ^33P-γ-ATP; the substrate was P38-β-tide, used at 200 microM.
The test mix consisted of:
1) 3× Enzyme mix (done in Kinase Buffer 3×), 5 microL/well
2) 3× substrate and ATP mix (done in ddH2O), together with ^33P-γ-ATP, 5 microL/well
3) 3× test compounds (diluted into ddH2O—3% DMSO)—5 microL/well
a) for percent inhibition studies (HTS), individual dilution plates at 1 mM are diluted at a 3× concentration (30 microM) in ddH2O (3% DMSO=final concentration) using a Beckman NX automated pipetting platform. The same instrument is used for distributing the diluted mother plates into the test plates. b) for IC50 determination (KSS platform), 100 μl of each compound at 1 mM in 100% DMSO are transferred from the original plate into the first column of another 96 well plate (A1 to G1); well H1 is left empty for the internal standard inhibitor, usually staurosporine.
An automated station for serial dilutions (Biomek FX, Beckman) is used for producing 1:3 dilutions in 100% DMSO, from line A1 to A10, and for all the seven compounds in the column. Moreover, 4-5 copies of daughter plates are prepared by reformatting 5 microL of this first set of 100% DMSO dilution plates into 384 deep well-plates: one copy of the daughter plates with the serial dilutions of test compounds will be thaw the day of the experiments, reconstituted at a 3× concentration with water and used in the IC50 determination assays. In a standard experiment, the highest concentration (3×) of all compounds is 30 microM, while the lowest one is 1.5 nM. […]

Chain of MPS1 (P33981 2-857): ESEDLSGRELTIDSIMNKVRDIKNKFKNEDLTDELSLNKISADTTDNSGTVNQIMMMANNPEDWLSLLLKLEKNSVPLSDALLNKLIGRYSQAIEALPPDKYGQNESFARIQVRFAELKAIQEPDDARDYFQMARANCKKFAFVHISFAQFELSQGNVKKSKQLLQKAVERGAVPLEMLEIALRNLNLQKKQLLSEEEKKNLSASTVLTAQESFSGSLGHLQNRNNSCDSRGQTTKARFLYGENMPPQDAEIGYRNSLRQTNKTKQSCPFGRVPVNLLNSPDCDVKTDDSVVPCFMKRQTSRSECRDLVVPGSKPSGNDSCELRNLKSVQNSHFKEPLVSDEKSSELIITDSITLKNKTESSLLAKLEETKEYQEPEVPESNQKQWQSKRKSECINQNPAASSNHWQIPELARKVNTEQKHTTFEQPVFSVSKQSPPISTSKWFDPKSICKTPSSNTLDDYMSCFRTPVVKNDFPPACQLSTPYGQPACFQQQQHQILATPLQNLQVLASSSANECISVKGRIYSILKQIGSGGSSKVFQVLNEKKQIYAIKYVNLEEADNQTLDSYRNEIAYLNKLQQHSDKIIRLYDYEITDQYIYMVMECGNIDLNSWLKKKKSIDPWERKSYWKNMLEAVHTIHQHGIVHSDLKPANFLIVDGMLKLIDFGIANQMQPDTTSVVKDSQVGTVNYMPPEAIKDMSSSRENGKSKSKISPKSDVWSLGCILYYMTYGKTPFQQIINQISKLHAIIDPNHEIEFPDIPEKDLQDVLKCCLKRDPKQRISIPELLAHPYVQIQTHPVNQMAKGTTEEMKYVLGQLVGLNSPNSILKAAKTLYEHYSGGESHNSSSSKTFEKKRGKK

Row | Compound | IC50
1 | COc1cc(Br)ccc1Nc1ncc2c(n1)-c1c(c(C(N)=O)nn1C)CCC2 [Compound 1, 9-[(4-bromo-2-methoxyphenyl)amino]-1-methyl-1,4,5,6-tetrahydropyrazolo[4′,3′:6,7]cyclohepta[1,2-d]pyrimidine-3-carboxamide] | 421 nM
2 | CCc1cccc(CC)c1NC(=O)c1nn(C)c2c1CCCc1cnc(Nc3ccc(N4CCN(C)CC4)cc3OC)nc1-2 [Compound 4, N-(2,6-diethylphenyl)-9-{[2-methoxy-4-(4-methylpiperazin-1-yl)phenyl]amino}-1-methyl-1,4,5,6-tetrahydropyrazolo[4′,3′:6,7]cyclohepta[1,2-d]pyrimidine-3-carboxamide] | 184 nM
3 | COc1cc(N2CCN(C)CC2)ccc1Nc1ncc2c(n1)-c1c(c(C(=O)Nc3ccccc3)nn1C)CCC2 [Compound 8, 9-{[2-methoxy-4-(4-methylpiperazin-1-yl)phenyl]amino}-1-methyl-N-phenyl-1,4,5,6-tetrahydropyrazolo[4′,3′:6,7]cyclohepta[1,2-d]pyrimidine-3-carboxamide] | 353 nM
4 | CCc1cccc(C)c1NC(=O)c1nn(C)c2c1CCCc1cnc(Nc3ccc(N4CCN(C)CC4)cc3OC)nc1-2 [Compound 27, N-(2-ethyl-6-methylphenyl)-9-{[2-methoxy-4-(4-methylpiperazin-1-yl)phenyl]amino}-1-methyl-1,4,5,6-tetrahydropyrazolo[4′,3′:6,7]cyclohepta[1,2-d]pyrimidine-3-carboxamide] | 189 nM
5 | COc1cc(N2CCN(C)CC2)ccc1Nc1ncc2c(n1)-c1c(c(C(=O)NC3CCCCC3)nn1C)CCC2 [Compound 28, N-cyclohexyl-9-{[2-methoxy-4-(4-methylpiperazin-1-yl)phenyl]amino}-1-methyl-1,4,5,6-tetrahydropyrazolo[4′,3′:6,7]cyclohepta[1,2-d]pyrimidine-3-carboxamide] | 249 nM
6 | CNC(=O)c1nn(C)c2c1CCCc1cnc(Nc3ccc(Br)cc3OC)nc1-2 [Compound 32, 9-[(4-bromo-2-methoxyphenyl)amino]-N,1-dimethyl-1,4,5,6-tetrahydropyrazolo[4′,3′:6,7]cyclohepta[1,2-d]pyrimidine-3-carboxamide] | 277 nM
7 | CCc1cccc(CC)c1NC(=O)c1nn(C)c2c1CCCc1cnc(Nc3ccc(C(=O)NC4CCN(C)CC4)cc3OC)nc1-2 [Compound 35, N-(2,6-diethylphenyl)-9-({2-methoxy-4-[(1-methylpiperidin-4-yl)carbamoyl]phenyl}amino)-1-methyl-1,4,5,6-tetrahydropyrazolo[4′,3′:6,7]cyclohepta[1,2-d]pyrimidine-3-carboxamide] | 66 nM
8 | CCc1cccc(CC)c1NC(=O)c1nn(C)c2c1CCCc1cnc(Nc3ccc(C(=O)N4CCCN(C)CC4)cc3OC(F)(F)F)nc1-2 [Compound 43, N-(2,6-diethylphenyl)-1-methyl-9-({4-[(4-methyl-1,4-diazepan-1-yl)carbonyl]-2-(trifluoromethoxy)phenyl}amino)-1,4,5,6-tetrahydropyrazolo[4′,3′:6,7]cyclohepta[1,2-d]pyrimidine-3-carboxamide] | 199 nM
9 | CCc1cccc(CC)c1NC(=O)c1nn(CC(F)(F)F)c2c1CCCc1cnc(Nc3ccc(N4CCN(C)CC4)cc3OC)nc1-2 [Compound 56, N-(2,6-diethylphenyl)-9-{[2-methoxy-4-(4-methylpiperazin-1-yl)phenyl]amino}-1-(2,2,2-trifluoroethyl)-1,4,5,6-tetrahydropyrazolo[4′,3′:6,7]cyclohepta[1,2-d]pyrimidine-3-carboxamide] | 862 nM
10 | CCc1cccc(CC)c1NC(=O)c1nn(CCO)c2c1CCCc1cnc(Nc3ccc(N4CCC(N(C)C)CC4)cc3OC)nc1-2 [Compound 71, N-(2,6-diethylphenyl)-9-({4-[4-(dimethylamino)piperidin-1-yl]-2-methoxyphenyl}amino)-1-(2-hydroxyethyl)-1,4,5,6-tetrahydropyrazolo[4′,3′:6,7]cyclohepta[1,2-d]pyrimidine-3-carboxamide trifluoroacetate] | 174 nM
11 | CCc1cccc(CC)c1NC(=O)c1c2c(nn1C)-c1nc(Nc3ccc(N4CCN(C)CC4)cc3OC)ncc1CCC2 [Compound 97, N-(2,6-diethylphenyl)-9-{[2-methoxy-4-(4-methylpiperazin-1-yl)phenyl]amino}-2-methyl-2,4,5,6-tetrahydropyrazolo[4′,3′:6,7]cyclohepta[1,2-d]pyrimidine-3-carboxamide] | 853 nM
12 | CCc1cccc(CC)c1NC(=O)c1noc2c1CCCc1cnc(Nc3ccc(N4CCN(C)CC4)cc3OC)nc1-2 [Compound 99, N-(2,6-diethylphenyl)-9-{[2-methoxy-4-(4-methylpiperazin-1-yl)phenyl]amino}-5,6-dihydro-4H-isoxazolo[4′,5′:6,7]cyclohepta[1,2-d]pyrimidine-3-carboxamide] | 134 nM
13 | CCc1cccc(CC)c1NC(=O)c1onc2c1CCCc1cnc(Nc3ccc(N4CCN(C)CC4)cc3OC)nc1-2 [Compound 101, N-(2,6-diethylphenyl)-9-{[2-methoxy-4-(4-methylpiperazin-1-yl)phenyl]amino}-5,6-dihydro-4H-isoxazolo[4′,3′:6,7]cyclohepta[1,2-d]pyrimidine-3-carboxamide] | 308 nM
